Like-named read-outs stand apart in the source and are kept apart here. Non-standard residues stand in square brackets, D forms with d. Residues, ends and D or L forms follow the SMILES beside them. pY = N[C@@H](Cc1ccc(OP(=O)(O)O)cc1)C(=O)O
Molecular target: T1, Fyn SH2 domain (Homo sapiens, UniProt P06241)
T1 construct: The human SH2 domains from Fyn (142–248), Lyn (121–228); His6-SUMO (N, cleaved yes); host or cells: Escherichia coli C43(DE3) with BirA helper plasmid
Test: biochemical
Type: binding
Excerpt: The human SH2 domains from Fyn (142–248), Lyn (121–228), Blk (116–222), and Yes (150–257) kinases were PCR‐amplified from plasmids encoding the full‐length proteins and cloned using the NEBuilder® HiFi DNA Assembly Master Mix (NEB) in a pET plasmid backbone that was PCR‐amplified with the primers pETXbaI_for and pETXhoI_rev (these and all other primers are defined in Table S7) from the pET‐His6‐SUMO‐Grb2(SH2), as reported before (Li et al., [2023]), thus adding an N‐terminal His6‐SUMO tag and a C‐terminal AviTag® for biotinylation. The SH2 plasmids are available via Addgene: pET28‐His6‐SUMO‐Fyn‐SH2‐AviTag (214202), pET28‐His6‐SUMO‐Blk‐SH2‐AviTag (214204), pET28‐His6‐SUMO‐Lyn‐SH2‐AviTag (214207), pET28‐His6‐SUMO‐Yes‐SH2‐AviTag (214208), and pET28‐His6‐SUMO‐cSrc‐SH2‐AviTag (214230). For expression and parallel biotinylating of the SH2 domain product, Escherichia coli C43(DE3) cells carrying a BirA encoding helper plasmid were transformed with the respective SH2 domain expression construct and plated to grow overnight at 37°C on a streptomycin and kanamycin (100 μg/mL both) LB‐agar plate. The colonies were collected in 10 mL of TB medium and used to inoculate 1 L of TB medium and grown at 37°C and 215 rpm. Upon reaching an OD600 of 0.5, the expression of the SH2 domains was induced by adding IPTG up to 0.5 mM and biotin up to 250 μM, and the expressing culture was incubated at 18°C for 16–18 h. After removing the medium through centrifugation, the cell pellets were snap‐frozen in liquid N2 and stored at −80°C until purification. To purify the biotinylated SH2 domains, the cell pellets were resuspended in lysis buffer (50 mM Tris, pH 7.5, 300 mM NaCl, 20 mM imidazole, 10% glycerol), supplementing them with 2 mM β‐mercaptoethanol and 1× protease inhibitor cocktail before lysis by sonication (Fisherbrand Sonic Dismembrator). The soluble fraction separated after centrifugation at 33,000 g was run on a HisTrap HP column (Cytiva), then washed with 10 CV of the lysis buffer followed by 10 CV of wash buffer (50 mM Tris, pH 7.5, 50 mM NaCl, 10 mM imidazole, 10% glycerol). Next, the protein was eluted with elution buffer (50 mM Tris, pH 7.5, 50 mM NaCl, 250 mM imidazole, 10% glycerol) directly onto a 5 mL HiTrap Q HP anion exchange column (Cytiva). The biotinylated SH2 domain was then eluted from the anion exchange column with an NaCl gradient (50 mM Tris, pH 7.5, 0.05–1 M NaCl, 1 mM TCEP‐HCl), and the His6‐SUMO tag was cleaved using 0.05 mg/mL Ulp1 protease. The biotinylated SH2 domain was then collected in a flowthrough after running the cleavage reaction over a HisTrap HP column. Finally, the biotinylated SH2 domain in the flowthrough was run on a HiLoad 16/600 Superdex 75 pg size exclusion column (Cytiva) in storage buffer (20 mM HEPES, pH 7.5, 150 mM NaCl, 10% glycerol). The purified biotinylated SH2 domains were aliquoted, snap‐frozen in liquid N2, and stored at −80°C.
Measured binding constants (K D) from competition mode fluorescence polarization experiments were obtained using the purified SH2 domains used for the selection and chosen sets of peptides with a phosphorylated tyrosine exactly as described previously (Li et al., [2023]). […] (c‐Src SH2 consensus) was used as the probe, and for the Grb2 SH2 domain, the fluorescently labeled peptide FITC‐Ahx‐FDDPS(pY)VNVQN (Ahx = 6‐aminohexanoic acid) from the Y177 phospho‐tyrosine site of BCR. Before performing the competition mode fluorescence polarization measurement, the K D of the probes for the respective SH2 domains was first measured in a direct mode of fluorescence polarization.

[1] = Table S3, unpaired validation, competition fluorescence polarization, probe FITC-Ahx-GDG-pY-EEISPLLL-NH2 0.4 nM, [SH2] 4.12 nM, mean, read-out: Kd mean

T1 sequence (P06241 142-248): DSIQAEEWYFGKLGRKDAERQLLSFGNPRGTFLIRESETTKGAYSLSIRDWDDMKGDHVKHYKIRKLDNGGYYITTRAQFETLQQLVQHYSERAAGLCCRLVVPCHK

CSCC[C@H](NC(=O)[C@H](CCC(N)=O)NC(C)=O)C(=O)N[C@@H](CCC(=O)O)C(=O)N[C@@H](CCCCN)C(=O)N[C@@H](Cc1c[nH]cn1)C(=O)N[C@H](C(=O)N[C@@H](Cc1ccc(OP(=O)(O)O)cc1)C(=O)N[C@@H](CCC(=O)O)C(=O)N[C@@H](CO)C(=O)N[C@H](C(=O)N[C@H](C(=O)N[C@@H](CCC(N)=O)C(=O)NCC(N)=O)[C@@H](C)O)C(C)C)C(C)C [Syn-F-2] (Ac-QMEKHV[pY]ESVTQG-NH2)
Kd: 18.3 nM

CC[C@H](C)[C@H](NC(=O)CNC(=O)[C@H](CCC(=O)O)NC(=O)[C@@H](NC(=O)[C@H](CCC(N)=O)NC(C)=O)C(C)C)C(=O)N[C@@H](CO)C(=O)N[C@@H](Cc1ccc(OP(=O)(O)O)cc1)C(=O)N[C@@H](CC(=O)O)C(=O)N[C@@H](Cc1ccccc1)C(=O)N[C@H](C(=O)N1CCC[C@H]1C(=O)N[C@H](C(=O)NCC(N)=O)[C@@H](C)O)[C@@H](C)CC [CBS pY308 G307S] (Ac-QVEGIS[pY]DFIPTG-NH2)
Kd: 185 nM

CC(=O)N[C@@H](CCC(N)=O)C(=O)N[C@@H](CO)C(=O)N[C@@H](CC(C)C)C(=O)N[C@@H](CCC(=O)O)C(=O)N[C@@H](CCCCN)C(=O)N[C@@H](CO)C(=O)N[C@@H](Cc1ccc(OP(=O)(O)O)cc1)C(=O)N[C@@H](CCC(=O)O)C(=O)N[C@@H](CC(C)C)C(=O)N1CCC[C@H]1C(=O)N[C@@H](CC(=O)O)C(=O)NCC(=O)NCC(N)=O [ACTB pY240] (Ac-QSLEKS[pY]ELPDGG-NH2)
Kd [1]: 159 nM

CC[C@H](C)[C@H](NC(=O)[C@@H]1CCCN1C(=O)[C@H](CCC(N)=O)NC(C)=O)C(=O)N[C@@H](Cc1ccccc1)C(=O)N[C@@H](CCC(=O)O)C(=O)NCC(=O)N[C@@H](Cc1ccc(OP(=O)(O)O)cc1)C(=O)N[C@@H](C)C(=O)N[C@@H](CC(C)C)C(=O)N1CCC[C@H]1C(=O)N[C@@H](Cc1c[nH]cn1)C(=O)N[C@@H](C)C(=O)NCC(N)=O [ACTA1 pY171] (Ac-QPIFEG[pY]ALPHAG-NH2)
Kd: 47.3 nM

CC(=O)N[C@@H](CCC(N)=O)C(=O)N[C@@H](CO)C(=O)N[C@@H](CC(C)C)C(=O)N[C@@H](CCC(=O)O)C(=O)N[C@@H](CCCCN)C(=O)N[C@@H](CO)C(=O)N[C@@H](Cc1ccc(OP(=O)(O)O)cc1)C(=O)N[C@@H](CCC(=O)O)C(=O)N[C@@H](CC(C)C)C(=O)N[C@@H](CC(C)C)C(=O)N[C@@H](CC(=O)O)C(=O)NCC(=O)NCC(N)=O [ACTB pY240 P243L] (Ac-QSLEKS[pY]ELLDGG-NH2)
Kd: 141 nM

CC[C@H](C)[C@H](NC(=O)[C@H](CC(C)C)NC(=O)[C@H](CO)NC(=O)[C@H](Cc1ccc(OP(=O)(O)O)cc1)NC(=O)[C@H](CCCNC(=N)N)NC(=O)[C@H](CCCNC(=N)N)NC(=O)[C@H](CCC(N)=O)NC(=O)[C@H](CC(=O)O)NC(=O)[C@H](CO)NC(=O)[C@H](CCC(N)=O)NC(C)=O)C(=O)N[C@@H](CC(=O)O)C(=O)N[C@@H](CCCNC(=N)N)C(=O)NCC(N)=O [CLIP2 pY972] (Ac-QSDQRR[pY]SLIDRG-NH2)
Kd [1]: 78.5 nM

CC[C@H](C)[C@H](NC(=O)[C@H](CC(C)C)NC(=O)[C@H](CO)NC(=O)[C@H](Cc1ccc(OP(=O)(O)O)cc1)NC(=O)[C@H](CCCNC(=N)N)NC(=O)[C@H](CCCNC(=N)N)NC(=O)[C@H](CCC(N)=O)NC(=O)[C@H](CC(=O)O)NC(=O)[C@H](CO)NC(=O)[C@H](CCC(N)=O)NC(C)=O)C(=O)N[C@@H](CC(=O)O)C(=O)N1CCC[C@H]1C(=O)NCC(N)=O [CLIP2 pY972 R977P] (Ac-QSDQRR[pY]SLIDPG-NH2)
Kd [1]: 27 nM

CC(=O)N[C@@H](CCC(N)=O)C(=O)N[C@@H](CC(C)C)C(=O)N[C@@H](Cc1c[nH]cn1)C(=O)N[C@H](C(=O)N[C@@H](Cc1c[nH]cn1)C(=O)N1CCC[C@H]1C(=O)N[C@@H](Cc1ccc(OP(=O)(O)O)cc1)C(=O)N[C@@H](CCC(=O)O)C(=O)N[C@@H](CCCCN)C(=O)N[C@H](C(=O)N[C@@H](CCC(=O)O)C(=O)N[C@@H](CC(=O)O)C(=O)NCC(N)=O)C(C)C)C(C)C [Syn-F-1] (Ac-QLHVHP[pY]EKVEDG-NH2)
Kd: 30.2 nM

CC[C@H](C)[C@H](NC(=O)CNC(=O)[C@H](CCC(=O)O)NC(=O)[C@@H](NC(=O)[C@H](CCC(N)=O)NC(C)=O)C(C)C)C(=O)NCC(=O)N[C@@H](Cc1ccc(OP(=O)(O)O)cc1)C(=O)N[C@@H](CC(=O)O)C(=O)N[C@@H](Cc1ccccc1)C(=O)N[C@H](C(=O)N1CCC[C@H]1C(=O)N[C@H](C(=O)NCC(N)=O)[C@@H](C)O)[C@@H](C)CC [CBS pY308] (Ac-QVEGIG[pY]DFIPTG-NH2)
Kd [1]: 126 nM

— article PMC12521615, “Accurate affinity models for SH2 domains from peptide binding assays and free‐energy regression” (Protein Science : A Publication of the Protein Society, 2025)
